Tested on: 429239-143-T-J1-PDC complex spheroid viability
Assay: Anticancer human tumor 429239-143-T-J1-PDC patient-derived small cell lung carcinoma cell line growth inhibition [POLQ]
Conditions: for IC50: curve of first compound; for viability, T/C: stronger effect = lower value
Summary of the method: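 Growth inhibition in 3D: complex spheroids (tumor PDC, HUVEC, MSC) treated with POLQ inhibitor combinations; where Cmax unknown, highest tested concentration 10 microM, except SN-38 at 1 microM.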

[1] = second compound 0.0316 µM, first compound 0.0316 µM
[2] = second compound 0.0316 µM, first compound 0.1 µM
[3] = second compound 0.0316 µM, first compound 0.316 µM
[4] = second compound 0.0316 µM, first compound 1 µM
[5] = second compound 0.0316 µM, first compound 3.16 µM
[6] = second compound 0.0316 µM, first compound 10 µM
[7] = second compound 0.1 µM, first compound 0.0316 µM
[8] = second compound 0.1 µM, first compound 0.1 µM
[9] = second compound 0.1 µM, first compound 0.316 µM
[10] = second compound 0.1 µM, first compound 1 µM
[11] = second compound 0.1 µM, first compound 3.16 µM
[12] = second compound 0.1 µM, first compound 10 µM
[13] = second compound 0.316 µM, first compound 0.0316 µM
[14] = second compound 0.316 µM, first compound 0.1 µM
[15] = second compound 0.316 µM, first compound 0.316 µM
[16] = second compound 0.316 µM, first compound 1 µM
[17] = second compound 0.316 µM, first compound 3.16 µM
[18] = second compound 0.316 µM, first compound 10 µM
[19] = second compound 1 µM, first compound 0.0316 µM
[20] = second compound 1 µM, first compound 0.1 µM
[21] = second compound 1 µM, first compound 0.316 µM
[22] = second compound 1 µM, first compound 1 µM
[23] = second compound 1 µM, first compound 3.16 µM
[24] = second compound 1 µM, first compound 10 µM
[25] = second compound 3.16 µM, first compound 0.0316 µM
[26] = second compound 3.16 µM, first compound 0.1 µM
[27] = second compound 3.16 µM, first compound 0.316 µM
[28] = second compound 3.16 µM, first compound 1 µM
[29] = second compound 3.16 µM, first compound 3.16 µM
[30] = second compound 3.16 µM, first compound 10 µM
[31] = second compound 10 µM, first compound 0.0316 µM
[32] = second compound 10 µM, first compound 0.1 µM
[33] = second compound 10 µM, first compound 0.316 µM
[34] = second compound 10 µM, first compound 1 µM
[35] = second compound 10 µM, first compound 3.16 µM
[36] = second compound 10 µM, first compound 10 µM
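Further: luminescence signal used as surrogate measure of viable cells; spheroids exposed to compounds for seven days before readout.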
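Wherever viability, T/C is given: 100% = DMSO vehicle control viability as luminescence relative to vehicle.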

For CC1COCCN1c1cc(C2(O)CC3CCC(C2)O3)c2cnn(-c3ccn[nH]3)c2n1 (stereo not drawn) + COC1C(OC(N)=O)C(O)C(Oc2ccc3c(O)c(NC(=O)c4ccc(O)c(CC=C(C)C)c4)c(=O)oc3c2C)OC1(C)C, the IC50 (second compound 0.0316 µM) was 48.7 nM, the IC50 (second compound 0.1 µM) was 63.6 nM and the IC50 (second compound 0.316 µM) was 49 nM. For the same compound, the IC50 (second compound 1 µM) was 65.9 nM, the IC50 (second compound 3.16 µM) was 57.8 nM and the IC50 (second compound 10 µM) was 43.2 nM. It also gave a viability, T/C [1] of 60.6%, a viability, T/C [2] of 32.4% and a viability, T/C [3] of 15.4%. The viability, T/C [4] was 9.3%, the viability, T/C [5] was 7.39% and the viability, T/C [6] was 6.59%. It also gave a viability, T/C [7] of 69.8%, a viability, T/C [8] of 37.4% and a viability, T/C [9] of 16%. For the same compound, the viability, T/C [10] was 9.73%, the viability, T/C [11] was 7.67% and the viability, T/C [12] was 5.38%. It also gave a viability, T/C [13] of 62.4%, a viability, T/C [14] of 28.4% and a viability, T/C [15] of 18.1%. The viability, T/C [16] was 9.94%, the viability, T/C [17] was 6.92% and the viability, T/C [18] was 5.8%. The viability, T/C [19] was 67.5%, the viability, T/C [20] was 39.9% and the viability, T/C [21] was 19.2%. The viability, T/C [22] was 7.99%, the viability, T/C [23] was 7.48% and the viability, T/C [24] was 5.25%. It also gave a viability, T/C [25] of 69.7%, a viability, T/C [26] of 31.6% and a viability, T/C [27] of 17.1%. It also gave a viability, T/C [28] of 8.72%, a viability, T/C [29] of 6.53% and a viability, T/C [30] of 5.31%. It also gave a viability, T/C [31] of 56.7%, a viability, T/C [32] of 32% and a viability, T/C [33] of 18.1%. It also gave a viability, T/C [34] of 8.41%, a viability, T/C [35] of 9.41% and a viability, T/C [36] of 5.38%.
In the case of CCc1cc2c(N3CCc4c(cc(Cn5ccnc5)cc4-c4cn(C)nc4C(F)(F)F)C3=O)cc(C)nc2c(OC)n1 + COC1C(OC(N)=O)C(O)C(Oc2ccc3c(O)c(NC(=O)c4ccc(O)c(CC=C(C)C)c4)c(=O)oc3c2C)OC1(C)C, the IC50 (second compound 0.0316 µM) is reported as 1470 nM, the IC50 (second compound 0.1 µM) is reported as 2240 nM and the IC50 (second compound 0.316 µM) is reported as 1390 nM. For the same compound, the IC50 (second compound 1 µM) was 1990 nM, the IC50 (second compound 3.16 µM) was 1410 nM and the IC50 (second compound 10 µM) was 715 nM. For the same compound, the viability, T/C [1] was 85.5%, the viability, T/C [2] was 85.1% and the viability, T/C [3] was 70.6%. The viability, T/C [4] was 50%, the viability, T/C [5] was 46.1% and the viability, T/C [6] was 29%. The viability, T/C [7] was 94.5%, the viability, T/C [8] was 88.7% and the viability, T/C [9] was 70%. The viability, T/C [10] was 64.3%, the viability, T/C [11] was 43.4% and the viability, T/C [12] was 33.4%. For the same compound, the viability, T/C [13] was 95.2%, the viability, T/C [14] was 95% and the viability, T/C [15] was 65.1%. The viability, T/C [16] was 57.8%, the viability, T/C [17] was 41.5% and the viability, T/C [18] was 40.4%. The viability, T/C [19] was 90.2%, the viability, T/C [20] was 76% and the viability, T/C [21] was 65.8%. For the same compound, the viability, T/C [22] was 69.1%, the viability, T/C [23] was 37.8% and the viability, T/C [24] was 30.5%. For the same compound, the viability, T/C [25] was 83.8%, the viability, T/C [26] was 83.3% and the viability, T/C [27] was 81.7%. For the same compound, the viability, T/C [28] was 52.6%, the viability, T/C [29] was 44.2% and the viability, T/C [30] was 31.1%. It also gave a viability, T/C [31] of 88.2%, a viability, T/C [32] of 82.8% and a viability, T/C [33] of 61.6%. For the same compound, the viability, T/C [34] was 44%, the viability, T/C [35] was 46.3% and the viability, T/C [36] was 34.1%.
In the case of COc1cc2cc(C(=O)CCC(=O)O)sc2cc1OC + COC1C(OC(N)=O)C(O)C(Oc2ccc3c(O)c(NC(=O)c4ccc(O)c(CC=C(C)C)c4)c(=O)oc3c2C)OC1(C)C, the IC50 (second compound 0.0316 µM) is reported as > 10000 nM, the IC50 (second compound 0.1 µM) is reported as > 10000 nM and the IC50 (second compound 0.316 µM) is reported as > 10000 nM. The IC50 (second compound 1 µM) was > 10000 nM, the IC50 (second compound 3.16 µM) was > 10000 nM and the IC50 (second compound 10 µM) was > 10000 nM. The viability, T/C [1] was 113%, the viability, T/C [2] was 95.9% and the viability, T/C [3] was 112%. For the same compound, the viability, T/C [4] was 105%, the viability, T/C [5] was 92.1% and the viability, T/C [6] was 92.4%. The viability, T/C [7] was 116%, the viability, T/C [8] was 104% and the viability, T/C [9] was 93.7%. For the same compound, the viability, T/C [10] was 100%, the viability, T/C [11] was 91.2% and the viability, T/C [12] was 92.6%. It also gave a viability, T/C [13] of 103%, a viability, T/C [14] of 99.3% and a viability, T/C [15] of 92.6%. It also gave a viability, T/C [16] of 107%, a viability, T/C [17] of 95.1% and a viability, T/C [18] of 90.2%. It also gave a viability, T/C [19] of 96.1%, a viability, T/C [20] of 91.1% and a viability, T/C [21] of 108%. The viability, T/C [22] was 90.9%, the viability, T/C [23] was 90.6% and the viability, T/C [24] was 102%. The viability, T/C [25] was 94.7%, the viability, T/C [26] was 112% and the viability, T/C [27] was 103%. For the same compound, the viability, T/C [28] was 89.4%, the viability, T/C [29] was 96% and the viability, T/C [30] was 101%. For the same compound, the viability, T/C [31] was 95.9%, the viability, T/C [32] was 91.7% and the viability, T/C [33] was 119%. For the same compound, the viability, T/C [34] was 96.6%, the viability, T/C [35] was 94.3% and the viability, T/C [36] was 95.7%.
In the case of O=C(Nc1ccc(O)c(NS(=O)(=O)c2ccc(F)cc2)c1)c1ccc(-c2ccccc2)cc1 + COC1C(OC(N)=O)C(O)C(Oc2ccc3c(O)c(NC(=O)c4ccc(O)c(CC=C(C)C)c4)c(=O)oc3c2C)OC1(C)C, the IC50 (second compound 0.0316 µM) is reported as > 10000 nM, the IC50 (second compound 0.1 µM) is reported as > 10000 nM and the IC50 (second compound 0.316 µM) is reported as > 10000 nM. The IC50 (second compound 1 µM) was > 10000 nM, the IC50 (second compound 3.16 µM) was > 10000 nM and the IC50 (second compound 10 µM) was > 10000 nM. It also gave a viability, T/C [1] of 110%, a viability, T/C [2] of 97.1% and a viability, T/C [3] of 108%. It also gave a viability, T/C [4] of 105%, a viability, T/C [5] of 99% and a viability, T/C [6] of 66.7%. The viability, T/C [7] was 90.2%, the viability, T/C [8] was 92.9% and the viability, T/C [9] was 99.6%. The viability, T/C [10] was 121%, the viability, T/C [11] was 113% and the viability, T/C [12] was 61.3%. The viability, T/C [13] was 101%, the viability, T/C [14] was 83.7% and the viability, T/C [15] was 95.2%. The viability, T/C [16] was 105%, the viability, T/C [17] was 106% and the viability, T/C [18] was 64.4%. The viability, T/C [19] was 104%, the viability, T/C [20] was 92.8% and the viability, T/C [21] was 93%. For the same compound, the viability, T/C [22] was 90.8%, the viability, T/C [23] was 107% and the viability, T/C [24] was 59.4%. The viability, T/C [25] was 98.9%, the viability, T/C [26] was 90% and the viability, T/C [27] was 100%. It also gave a viability, T/C [28] of 98.7%, a viability, T/C [29] of 93.3% and a viability, T/C [30] of 76.9%. For the same compound, the viability, T/C [31] was 99.1%, the viability, T/C [32] was 85.9% and the viability, T/C [33] was 99%. It also gave a viability, T/C [34] of 102%, a viability, T/C [35] of 113% and a viability, T/C [36] of 68.6%.

Source: PubChem BioAssay AID1963845 (Molecular Pharmacology Branch, DTP, NCI, 2024)
